Measurements published in ChEMBL document CHEMBL3871277, “Synthesis and anti-metastatic effects of pregn-17(20)-en-3-amine derivatives” (Eur J Med Chem, 2016).
Calls of active or inactive are those of the source. The rule behind the calls is not given here.

Experiments:
[1] = Antimigratory activity against EGF induced chemotaxis in human MDA-MB-231 cells preincubated for 24 hrs followed by EGF addition for 3.5 hrs by light microscopy; type: functional, cell-based
[2] = Antimigratory activity in human HepG2 cells at 4.5 uM after 24 hrs by wound healing assay; type: functional
[3] = Anti-invasive activity in human HepG2 cells at 4.5 uM after 24 hrs by MTT dye based boyden chamber assay; type: functional
MDA-MB-231 [4] = assay: Antiinvasive activity in human MDA-MB-231 cells after 24 hrs by transwell migration assay; type: functional, cell-based
MDA-MB-231 [5] = assay: Antimigratory activity in human MDA-MB-231 cells after 24 hrs by wound healing assay; type: functional, cell-based
MDA-MB-231 [6] = assay: Antimigratory activity in human MDA-MB-231 cells assessed as decrease in cell adhesion to fibronectin at 1 to 40 uM after 24 hrs by MTT assay; type: functional, cell-based
MDA-MB-231 [7] = assay: Inhibition of PI3K-p85 phosphorylation in human MDA-MB-231 cells by Western blot analysis; type: cell-based
MDA-MB-231 [8] = assay: Inhibition of PI3K-p85 in human MDA-MB-231 cells assessed as reduction in Akt phosphorylation by Western blot analysis; type: cell-based
[9] = target: Integrin beta-1 (Homo sapiens) (UniProt P05556); assay: Inhibition of integrin-beta1 phosphorylation in human MDA-MB-231 cells by Western blot analysis; type: cell-based
Sequence of Integrin beta-1 (Homo sapiens) (P05556 whole entry): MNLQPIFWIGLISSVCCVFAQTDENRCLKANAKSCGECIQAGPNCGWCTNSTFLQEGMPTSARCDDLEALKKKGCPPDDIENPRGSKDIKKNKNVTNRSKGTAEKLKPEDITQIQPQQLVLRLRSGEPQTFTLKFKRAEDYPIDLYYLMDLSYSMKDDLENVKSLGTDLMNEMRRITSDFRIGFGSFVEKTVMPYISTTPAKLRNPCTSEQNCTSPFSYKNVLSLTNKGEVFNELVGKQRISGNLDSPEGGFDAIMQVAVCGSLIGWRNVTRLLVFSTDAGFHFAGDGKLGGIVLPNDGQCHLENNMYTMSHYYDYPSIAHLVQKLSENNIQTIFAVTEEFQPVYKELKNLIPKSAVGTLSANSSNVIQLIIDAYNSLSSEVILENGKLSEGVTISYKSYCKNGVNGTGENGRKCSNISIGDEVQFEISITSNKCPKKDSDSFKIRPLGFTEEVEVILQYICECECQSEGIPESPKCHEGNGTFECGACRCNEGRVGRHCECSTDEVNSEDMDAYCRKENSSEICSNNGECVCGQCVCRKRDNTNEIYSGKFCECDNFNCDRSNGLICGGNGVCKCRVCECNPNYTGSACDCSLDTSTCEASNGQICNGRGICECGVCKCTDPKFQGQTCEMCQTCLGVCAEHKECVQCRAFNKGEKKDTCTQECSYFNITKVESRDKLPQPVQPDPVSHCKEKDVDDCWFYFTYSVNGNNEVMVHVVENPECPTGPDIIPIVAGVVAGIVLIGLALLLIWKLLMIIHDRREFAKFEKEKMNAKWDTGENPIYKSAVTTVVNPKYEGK

[10] = Effect on integrin-beta1 protein expression in human MDA-MB-231 cells at 5 to 45 uM by Western blot analysis; type: ADME, cell-based; details: mda-mb-231, 45 µM
MDA-MB-231 [11] = assay: Inhibition of PI3K-p85 in human MDA-MB-231 cells assessed as reduction in PKCzeta phosphorylation by Western blot analysis; type: cell-based
[12] = Effect on PKCzeta protein expression in human MDA-MB-231 cells at 0.25 to 6.75 uM by Western blot analysis; type: ADME, cell-based; details: mda-mb-231, 6.75 µM
MDA-MB-231 [13] = assay: Antimigratory activity in human MDA-MB-231 cells assessed as decrease in cell adhesion at 0.25 uM after 24 hrs by MTT assay; type: functional, cell-based
[14] = Homo sapiens, MDA-MB-231, read-out: IC50

Compound	IC50 [1, 14] [µM]	other results
C/C=C1/[C@H](O)C[C@H]2[C@@H]3CCC4C[C@H](N(C)C)CC[C@]4(C)[C@H]3CC[C@]12C (stereo partly specified)	> 50	–
CC=C1CC[C@H]2[C@@H]3CCC4C[C@@H](NC)CC[C@]4(C)[C@H]3CC[C@]12C (stereo partly specified)	1.21	–
O=c1cc(N2CCOCC2)oc2c(-c3ccccc3)cccc12 [LY-294002]	0.38	–
C/C=C1/C(=O)C[C@H]2[C@@H]3CCC4C[C@@H](NC)CC[C@]4(C)[C@H]3CC[C@]12C (stereo partly specified)	18.9	–
C/C=C1/CC[C@H]2[C@@H]3CCC4C[C@H](N5CCCCC5)CC[C@]4(C)[C@H]3CC[C@]12C (stereo partly specified)	2.48	–
C/C=C1/CC[C@H]2[C@@H]3CCC4C[C@@H](NC(=O)c5ccc(C#N)cc5)CC[C@]4(C)[C@H]3CC[C@]12C (stereo partly specified)	0.24	–
C/C=C1/C(=O)C[C@H]2[C@@H]3CCC4C[C@@H](NCc5ccc(C#N)cc5)CC[C@]4(C)[C@H]3CC[C@]12C (stereo partly specified)	0.84	–
C/C=C1/[C@H](O)C[C@H]2[C@@H]3CCC4C[C@@H](N)CC[C@]4(C)[C@H]3CC[C@]12C (stereo partly specified)	–	IC50 ([1]; mda-mb-231): Nd(Toxic)
C/C=C1/[C@H](O)C[C@H]2[C@@H]3CCC4C[C@@H](NCC)CC[C@]4(C)[C@H]3CC[C@]12C (stereo partly specified)	–	IC50 ([1]; mda-mb-231): Nd(Toxic)
C/C=C1/CC[C@H]2[C@@H]3CCC4C[C@@H](N)CC[C@]4(C)[C@H]3CC[C@]12C (stereo partly specified)	0.09	–
C/C=C1/CC[C@H]2[C@@H]3CCC4C[C@H](NCc5ccc(C#N)cc5)CC[C@]4(C)[C@H]3CC[C@]12C (stereo partly specified)	> 50	–
C/C=C1/[C@H](O)C[C@H]2[C@@H]3CCC4C[C@H](NC)CC[C@]4(C)[C@H]3CC[C@]12C (stereo partly specified)	–	IC50 ([1]; mda-mb-231): Nd(Toxic)
C/C=C1/C(=O)C[C@H]2[C@@H]3CCC4C[C@@H](NCC)CC[C@]4(C)[C@H]3CC[C@]12C (stereo partly specified)	28.5	–
C/C=C1/[C@H](O)C[C@H]2[C@@H]3CCC4C[C@H](N)CC[C@]4(C)[C@H]3CC[C@]12C (stereo partly specified)	1.08	–
C/C=C1/CC[C@H]2[C@@H]3CCC4C[C@H](N5CCCC5)CC[C@]4(C)[C@H]3CC[C@]12C (stereo partly specified)	24.2	–
C/C=C1/[C@H](O)C[C@H]2[C@@H]3CCC4C[C@H](N5CCCCC5)CC[C@]4(C)[C@H]3CC[C@]12C (stereo partly specified)	0.85	–
C[C@@H]1CC[C@@]2(NC1)O[C@H]1C[C@H]3[C@@H]4CC=C5C[C@@H](O[C@@H]6O[C@H](CO)[C@@H](O[C@@H]7O[C@@H](C)[C@H](O)[C@@H](O)[C@H]7O)[C@H](O)[C@H]6O[C@@H]6O[C@@H](C)[C@H](O)[C@@H](O)[C@H]6O)CC[C@]5(C)[C@H]4CC[C@]3(C)[C@H]1[C@@H]2C [SOLAMARGINE]	–	Activity [2]: 40%; Activity [3]: 40%
C/C=C1/C(=O)C[C@H]2[C@@H]3CCC4C[C@H](NC)CC[C@]4(C)[C@H]3CC[C@]12C (stereo partly specified)	–	IC50 ([1]; mda-mb-231): Nd(Toxic)
C/C=C1/[C@H](O)C[C@H]2[C@@H]3CCC4C[C@H](NCC)CC[C@]4(C)[C@H]3CC[C@]12C (stereo partly specified)	32.8	–
C/C=C1/C(=O)C[C@H]2[C@@H]3CCC4C[C@H](N5CCCCC5)CC[C@]4(C)[C@H]3CC[C@]12C (stereo partly specified)	0.03	Activity (MDA-MB-231 [4]): Dose-dependent effect; Activity (MDA-MB-231 [5]): Dose-dependent effect; Activity (MDA-MB-231 [6]): Active; inhibition (MDA-MB-231 [7]): Dose-dependent effect; inhibition (MDA-MB-231 [8]): Dose-dependent effect; inhibition [9]: Dose-dependent effect; Activity [10]: Non-Toxic; inhibition (MDA-MB-231 [11]): Dose-dependent effect; Activity [12]: Non-Toxic
C/C=C1/C(=O)C[C@H]2[C@@H]3CCC4C[C@@H](N)CC[C@]4(C)[C@H]3CC[C@]12C (stereo partly specified)	0.48	–
C/C=C1/C(=O)C[C@H]2[C@@H]3CCC4C[C@H](N)CC[C@]4(C)[C@H]3CC[C@]12C (stereo partly specified)	0.3	–
C/C=C1/C(=O)C[C@H]2[C@@H]3CCC4C[C@H](N5CCCC5)CC[C@]4(C)[C@H]3CC[C@]12C (stereo partly specified)	> 50	–

Compound	IC50 [1, 14] [µM]	other results
C/C=C1/C(=O)C[C@H]2[C@@H]3CCC4C[C@@H](N(C)C)CC[C@]4(C)[C@H]3CC[C@]12C (stereo partly specified)	2.14	–
CC=C1CC[C@H]2[C@@H]3CCC4C[C@H](NC)CC[C@]4(C)[C@H]3CC[C@]12C (stereo partly specified)	> 50	–
C/C=C1/CC[C@H]2[C@@H]3CCC4C[C@@H](N(C)C)CC[C@]4(C)[C@H]3CC[C@]12C (stereo partly specified)	5.51	–
C/C=C1/[C@H](O)C[C@H]2[C@@H]3CCC4C[C@H](NCc5ccc(C#N)cc5)CC[C@]4(C)[C@H]3CC[C@]12C (stereo partly specified)	–	IC50 ([1]; mda-mb-231): Nd(Toxic)
FC(F)c1nc2ccccc2n1-c1nc(N2CCOCC2)nc(N2CCOCC2)n1	–	Activity (MDA-MB-231 [13]): Active
C/C=C1/CC[C@H]2[C@@H]3CCC4C[C@@H](NCc5ccc(C#N)cc5)CC[C@]4(C)[C@H]3CC[C@]12C (stereo partly specified)	26.7	–
C/C=C1/[C@H](O)C[C@H]2[C@@H]3CCC4C[C@@H](NCc5ccc(C#N)cc5)CC[C@]4(C)[C@H]3CC[C@]12C (stereo partly specified)	15.9	–
C/C=C1/C(=O)C[C@H]2[C@@H]3CCC4C[C@H](NCc5ccc(C#N)cc5)CC[C@]4(C)[C@H]3CC[C@]12C (stereo partly specified)	2.34	–
C/C=C1/[C@H](O)C[C@H]2[C@@H]3CCC4C[C@@H](N5CCCC5)CC[C@]4(C)[C@H]3CC[C@]12C (stereo partly specified)	–	IC50 ([1]; mda-mb-231): Nd(Toxic)
C/C=C1/[C@H](O)C[C@H]2[C@@H]3CCC4C[C@@H](N(C)C)CC[C@]4(C)[C@H]3CC[C@]12C (stereo partly specified)	–	IC50 ([1]; mda-mb-231): Nd(Toxic)
C/C=C1/[C@H](O)C[C@H]2[C@@H]3CCC4C[C@@H](N5CCCCC5)CC[C@]4(C)[C@H]3CC[C@]12C (stereo partly specified)	21.4	–
C/C=C1/CC[C@H]2[C@@H]3CCC4C[C@@H](NCC)CC[C@]4(C)[C@H]3CC[C@]12C (stereo partly specified)	0.17	–
C/C=C1/C(=O)C[C@H]2[C@@H]3CCC4C[C@H](N(C)C)CC[C@]4(C)[C@H]3CC[C@]12C (stereo partly specified)	7.37	–
C/C=C1/CC[C@H]2[C@@H]3CCC4C[C@H](NCC)CC[C@]4(C)[C@H]3CC[C@]12C (stereo partly specified)	20.2	–
C/C=C1/C(=O)C[C@H]2[C@@H]3CCC4C[C@@H](N5CCCCC5)CC[C@]4(C)[C@H]3CC[C@]12C (stereo partly specified)	> 50	–
C/C=C1/CC[C@H]2[C@@H]3CCC4C[C@@H](N5CCCC5)CC[C@]4(C)[C@H]3CC[C@]12C (stereo partly specified)	4.36	–
C/C=C1/C(=O)C[C@H]2[C@@H]3CCC4C[C@H](NCC)CC[C@]4(C)[C@H]3CC[C@]12C (stereo partly specified)	–	IC50 ([1]; mda-mb-231): Nd(Toxic)
C/C=C1/CC[C@H]2[C@@H]3CCC4C[C@@H](N5CCCCC5)CC[C@]4(C)[C@H]3CC[C@]12C (stereo partly specified)	> 50	–
C/C=C1/CC[C@H]2[C@@H]3CCC4C[C@H](N(C)C)CC[C@]4(C)[C@H]3CC[C@]12C (stereo partly specified)	7.45	–
C/C=C1/[C@H](O)C[C@H]2[C@@H]3CCC4C[C@H](N5CCCC5)CC[C@]4(C)[C@H]3CC[C@]12C (stereo partly specified)	0.26	–
C/C=C1/C(=O)C[C@H]2[C@@H]3CCC4C[C@@H](N5CCCC5)CC[C@]4(C)[C@H]3CC[C@]12C (stereo partly specified)	–	IC50 ([1]; mda-mb-231): Nd(Toxic)
C/C=C1/[C@H](O)C[C@H]2[C@@H]3CCC4C[C@@H](NC)CC[C@]4(C)[C@H]3CC[C@]12C (stereo partly specified)	4.77	–
C/C=C1/CC[C@H]2[C@@H]3CCC4C[C@H](N)CC[C@]4(C)[C@H]3CC[C@]12C (stereo partly specified)	2.21	–
